Results reported in US12209081B2 (Katholieke Universiteit Leuven, priority 2020, dated 2025).

target: mouse TRPM3α2 (mTRPM3) ion channel (Mus musculus (Mouse), UniProt J9SQF3); assay: TRPM3 ion channel driven Ca2+ uptake, Fluo-4 AM assay, mTRPM3alpha2 overexpressing flip-in HEK293 cells stimulated with pregnenolone sulfate; assay type: cell-based; conditions: PS (50 μM) stimulated, cpds. 400-499
Summary of the method: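 Flip-in HEK293 cells loaded with Fluo-4 AM were added to plates holding compound plus 50 μM pregnenolone sulfate in Ca2+-containing Krebs buffer. Fluorescence (ex 485/em 535 nm) read directly after cell addition; % inhibition relative to PS-stimulated vehicle and positive-control inhibitor.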

Sequence of mouse TRPM3α2 (mTRPM3) ion channel (J9SQF3 other isoform, or with tags, fused parts or gaps): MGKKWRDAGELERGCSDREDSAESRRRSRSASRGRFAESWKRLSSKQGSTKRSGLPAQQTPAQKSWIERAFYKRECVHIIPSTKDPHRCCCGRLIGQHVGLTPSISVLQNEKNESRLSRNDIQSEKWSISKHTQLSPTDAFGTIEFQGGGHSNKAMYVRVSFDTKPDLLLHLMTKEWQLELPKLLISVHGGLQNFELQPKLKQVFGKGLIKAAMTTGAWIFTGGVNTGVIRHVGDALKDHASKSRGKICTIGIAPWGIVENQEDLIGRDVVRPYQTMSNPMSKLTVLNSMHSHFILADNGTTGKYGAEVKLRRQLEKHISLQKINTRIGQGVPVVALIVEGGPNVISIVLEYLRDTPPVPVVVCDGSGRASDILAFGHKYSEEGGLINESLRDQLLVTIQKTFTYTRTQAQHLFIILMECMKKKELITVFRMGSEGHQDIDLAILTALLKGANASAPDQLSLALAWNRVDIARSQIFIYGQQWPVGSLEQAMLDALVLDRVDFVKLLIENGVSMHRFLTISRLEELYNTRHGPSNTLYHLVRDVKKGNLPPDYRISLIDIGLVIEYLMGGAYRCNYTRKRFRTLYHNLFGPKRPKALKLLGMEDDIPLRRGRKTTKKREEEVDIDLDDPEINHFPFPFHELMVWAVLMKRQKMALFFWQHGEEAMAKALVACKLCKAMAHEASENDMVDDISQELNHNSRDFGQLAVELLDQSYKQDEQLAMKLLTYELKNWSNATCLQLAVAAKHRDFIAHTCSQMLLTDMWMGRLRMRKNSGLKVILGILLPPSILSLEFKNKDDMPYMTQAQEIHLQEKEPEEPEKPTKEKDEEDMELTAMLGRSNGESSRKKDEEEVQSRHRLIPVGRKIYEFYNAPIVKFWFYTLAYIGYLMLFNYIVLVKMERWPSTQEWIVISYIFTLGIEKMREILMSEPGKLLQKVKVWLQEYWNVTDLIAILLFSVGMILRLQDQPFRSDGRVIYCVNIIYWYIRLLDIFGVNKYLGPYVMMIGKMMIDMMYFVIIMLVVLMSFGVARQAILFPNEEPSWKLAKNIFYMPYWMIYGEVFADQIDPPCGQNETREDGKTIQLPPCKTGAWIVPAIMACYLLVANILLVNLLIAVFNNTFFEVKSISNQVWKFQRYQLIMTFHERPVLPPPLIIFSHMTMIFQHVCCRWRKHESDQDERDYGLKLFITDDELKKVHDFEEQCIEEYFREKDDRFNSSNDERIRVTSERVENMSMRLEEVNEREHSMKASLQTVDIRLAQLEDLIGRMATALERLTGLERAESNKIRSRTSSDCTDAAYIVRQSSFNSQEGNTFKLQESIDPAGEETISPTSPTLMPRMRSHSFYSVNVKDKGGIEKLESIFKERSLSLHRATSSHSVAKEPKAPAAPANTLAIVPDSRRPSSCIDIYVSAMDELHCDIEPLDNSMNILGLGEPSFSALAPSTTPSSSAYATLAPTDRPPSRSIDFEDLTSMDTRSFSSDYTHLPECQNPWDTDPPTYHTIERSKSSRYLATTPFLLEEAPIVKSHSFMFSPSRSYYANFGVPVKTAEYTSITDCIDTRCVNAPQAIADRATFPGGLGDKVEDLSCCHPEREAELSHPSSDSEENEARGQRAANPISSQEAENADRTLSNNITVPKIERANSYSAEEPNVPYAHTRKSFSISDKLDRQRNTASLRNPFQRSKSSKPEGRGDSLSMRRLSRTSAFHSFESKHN

IC50, < 1000 nM:
Cc1oc2ccc(OCc3ccccn3)cc2c1C(=O)NC(C)(CO)CO [compound 428, N-(1,3-dihydroxy-2-methylpropan-2-yl)-2-methyl-5-(pyridin-2-ylmethoxy)benzofuran-3-carboxamide]
Cc1oc2ccc(OCc3ccncn3)cc2c1C(=O)NC(C)(CO)CO [compound 429, N-(1,3-dihydroxy-2-methylpropan-2-yl)-2-methyl-5-(pyrimidin-4-ylmethoxy)benzofuran-3-carboxamide]
Cc1oc2ccc(OCc3cccnc3O)cc2c1C(=O)NC(C)(CO)CO [compound 430, N-(1,3-dihydroxy-2-methylpropan-2-yl)-5-((2-hydroxypyridin-3-yl)methoxy)-2-methylbenzofuran-3-carboxamide]
COc1ncccc1COc1ccc2oc(C)c(C(=O)NC(C)(CO)CO)c2c1 [compound 431, N-(1,3-dihydroxy-2-methylpropan-2-yl)-5-((2-methoxypyridin-3-yl)methoxy)-2-methylbenzofuran-3-carboxamide]
Cc1oc2ccc(OCc3ccnn3C)cc2c1C(=O)NC(C)(C)C(N)=O [compound 438, N-(1-amino-2-methyl-1-oxopropan-2-yl)-2-methyl-5-((1-methyl-1H-pyrazol-5-yl)methoxy)benzofuran-3-carboxamide]
Cc1ncc(COc2ccc3oc(C)c(C(=O)NC(C)(C)C(N)=O)c3c2)s1 [compound 439, N-(1-amino-2-methyl-1-oxopropan-2-yl)-2-methyl-5-((2-methylthiazol-5-yl)methoxy)benzofuran-3-carboxamide]
Cc1ncsc1COc1ccc2oc(C)c(C(=O)NC(C)(C)C(N)=O)c2c1 [compound 440, N-(1-amino-2-methyl-1-oxopropan-2-yl)-2-methyl-5-((4-methylthiazol-5-yl)methoxy)benzofuran-3-carboxamide]
Cc1oc2ccc(OCc3cccnn3)cc2c1C(=O)NC(C)(C)C(N)=O [compound 441, N-(1-amino-2-methyl-1-oxopropan-2-yl)-2-methyl-5-(pyridazin-3-ylmethoxy)benzofuran-3-carboxamide]
Cc1oc2ccc(OCc3ccccn3)cc2c1C(=O)NC(C)(C)C(N)=O [compound 442, N-(1-amino-2-methyl-1-oxopropan-2-yl)-2-methyl-5-(pyridin-2-ylmethoxy)benzofuran-3-carboxamide]
Cc1oc2ccc(OCc3cccnc3O)cc2c1C(=O)NC(C)(C)C(N)=O [compound 443, N-(1-amino-2-methyl-1-oxopropan-2-yl)-5-((2-hydroxypyridin-3-yl)methoxy)-2-methylbenzofuran-3-carboxamide]
COc1ncccc1COc1ccc2oc(C)c(C(=O)NC(C)(C)C(N)=O)c2c1 [compound 444, N-(1-amino-2-methyl-1-oxopropan-2-yl)-5-((2-methoxypyridin-3-yl)methoxy)-2-methylbenzofuran-3-carboxamide]
Cc1ncsc1COc1ccc2oc(C)c(C(=O)NC(CO)C(N)=O)c2c1 (centres unmarked) [compound 454, N-(1-amino-3-hydroxy-1-oxopropan-2-yl)-2-methyl-5-((4-methylthiazol-5-yl)methoxy)benzofuran-3-carboxamide]
Cc1ncsc1COc1ccc2oc(C)c(C(=O)NC3(C(N)=O)CC(F)(F)C3)c2c1 [compound 470, N-(1-carbamoyl-3,3-difluorocyclobutyl)-2-methyl-5-((4-methylthiazol-5-yl)methoxy)benzofuran-3-carboxamide]
Cc1ncc(COc2ccc3oc(C)c(C(=O)NC4(C(N)=O)CCC4)c3c2)s1 [compound 471, N-(1-carbamoylcyclobutyl)-2-methyl-5-((2-methylthiazol-5-yl)methoxy)benzofuran-3-carboxamide]
Cc1oc2ccc(OCc3ccccn3)cc2c1C(=O)NC1(C(N)=O)CCC1 [compound 472, N-(1-carbamoylcyclobutyl)-2-methyl-5-(pyridin-2-ylmethoxy)benzofuran-3-carboxamide]
Cc1oc2ccc(OCc3cccnc3O)cc2c1C(=O)NC1(C(N)=O)CCC1 [compound 473, N-(1-carbamoylcyclobutyl)-5-((2-hydroxypyridin-3-yl)methoxy)-2-methylbenzofuran-3-carboxamide]
COc1ncccc1COc1ccc2oc(C)c(C(=O)NC3(C(N)=O)CCC3)c2c1 [compound 474, N-(1-carbamoylcyclobutyl)-5-((2-methoxypyridin-3-yl)methoxy)-2-methylbenzofuran-3-carboxamide]
Cc1oc2ccc(OCc3cccnc3C(F)(F)F)cc2c1C(=O)NC1(C(N)=O)CC1 [compound 475, N-(1-carbamoylcyclopropyl)-2-methyl-5-((2-(trifluoromethyl)pyridin-3-yl)methoxy)benzofuran-3-carboxamide]
Cc1ncc(COc2ccc3oc(C)c(C(=O)NC4(C(N)=O)CC4)c3c2)s1 [compound 476, N-(1-carbamoylcyclopropyl)-2-methyl-5-((2-methylthiazol-5-yl)methoxy)benzofuran-3-carboxamide]
Cc1ncsc1COc1ccc2oc(C)c(C(=O)NC3(C(N)=O)CC3)c2c1 [compound 477, N-(1-carbamoylcyclopropyl)-2-methyl-5-((4-methylthiazol-5-yl)methoxy)benzofuran-3-carboxamide]
Cc1oc2ccc(OCc3ccccn3)cc2c1C(=O)NC1(C(N)=O)CC1 [compound 478, N-(1-carbamoylcyclopropyl)-2-methyl-5-(pyridin-2-ylmethoxy)benzofuran-3-carboxamide]
COc1ncccc1COc1ccc2oc(C)c(C(=O)NC3(C(N)=O)CC3)c2c1 [compound 480, N-(1-carbamoylcyclopropyl)-5-((2-methoxypyridin-3-yl)methoxy)-2-methylbenzofuran-3-carboxamide]
Cc1oc2ccc(OCc3nccn3C)cc2c1C(=O)NC(C)(C)CO [compound 481, N-(1-hydroxy-2-methylpropan-2-yl)-2-methyl-5-((1-methyl-1H-imidazol-2-yl)methoxy)benzofuran-3-carboxamide]
Cc1oc2ccc(OCc3ccnn3C)cc2c1C(=O)NC(C)(C)CO [compound 482, N-(1-hydroxy-2-methylpropan-2-yl)-2-methyl-5-((1-methyl-1H-pyrazol-5-yl)methoxy)benzofuran-3-carboxamide]
Cc1ncc(COc2ccc3oc(C)c(C(=O)NC(C)(C)CO)c3c2)s1 [compound 483, N-(1-hydroxy-2-methylpropan-2-yl)-2-methyl-5-((2-methylthiazol-5-yl)methoxy)benzofuran-3-carboxamide]
Cc1oc2ccc(OCc3ccccn3)cc2c1C(=O)NC(C)(C)CO [compound 484, N-(1-hydroxy-2-methylpropan-2-yl)-2-methyl-5-(pyridin-2-ylmethoxy)benzofuran-3-carboxamide]
Cc1oc2ccc(OCc3cccnc3O)cc2c1C(=O)NC(C)(C)CO [compound 485, N-(1-hydroxy-2-methylpropan-2-yl)-5-((2-hydroxypyridin-3-yl)methoxy)-2-methylbenzofuran-3-carboxamide]
COc1ncccc1COc1ccc2oc(C)c(C(=O)NC(C)(C)CO)c2c1 [compound 486, N-(1-hydroxy-2-methylpropan-2-yl)-5-((2-methoxypyridin-3-yl)methoxy)-2-methylbenzofuran-3-carboxamide]
Cc1oc2ccc(OCc3ccccn3)cc2c1C(=O)N[C@@H](C)CO [compound 492, (S)-N-(1-hydroxypropan-2-yl)-2-methyl-5-(pyridin-2-ylmethoxy)benzofuran-3-carboxamide]
Cc1oc2ccc(OCc3ccccn3)cc2c1C(=O)N[C@H](C)CO [compound 493, (R)-N-(1-hydroxypropan-2-yl)-2-methyl-5-(pyridin-2-ylmethoxy)benzofuran-3-carboxamide]
Cc1oc2ccc(OCc3cccnc3O)cc2c1C(=O)N[C@@H](C)CO [compound 494, (S)-N-(1-hydroxypropan-2-yl)-5-((2-hydroxypyridin-3-yl)methoxy)-2-methylbenzofuran-3-carboxamide]
Cc1oc2ccc(OCc3cccnc3O)cc2c1C(=O)N[C@H](C)CO [compound 495, (R)-N-(1-hydroxypropan-2-yl)-5-((2-hydroxypyridin-3-yl)methoxy)-2-methylbenzofuran-3-carboxamide]
COc1ncccc1COc1ccc2oc(C)c(C(=O)N[C@@H](C)CO)c2c1 [compound 496, (S)-N-(1-hydroxypropan-2-yl)-5-((2-methoxypyridin-3-yl)methoxy)-2-methylbenzofuran-3-carboxamide]
COc1ncccc1COc1ccc2oc(C)c(C(=O)N[C@H](C)CO)c2c1 [compound 497, (R)-N-(1-hydroxypropan-2-yl)-5-((2-methoxypyridin-3-yl)methoxy)-2-methylbenzofuran-3-carboxamide]
Cc1ncsc1COc1ccc2oc(C)c(C(=O)NCC(F)F)c2c1 [compound 498, N-(2,2-difluoroethyl)-2-methyl-5-((4-methylthiazol-5-yl)methoxy)benzofuran-3-carboxamide]
Cc1ncc(COc2ccc3oc(C)c(C(=O)NCC(C)(F)F)c3c2)s1 [compound 499, N-(2,2-difluoropropyl)-2-methyl-5-((2-methylthiazol-5-yl)methoxy)benzofuran-3-carboxamide]

same assay, conditions: PS (50 μM) stimulated, cpds. 500-599

IC50, < 1000 nM:
Cc1ncsc1COc1ccc2oc(C)c(C(=O)NCC(C)(F)F)c2c1 [compound 500, N-(2,2-difluoropropyl)-2-methyl-5-((4-methylthiazol-5-yl)methoxy)benzofuran-3-carboxamide]
CC(=O)NCCNC(=O)c1c(C)oc2ccc(OCc3scnc3C)cc12 [compound 501, N-(2-acetamidoethyl)-2-methyl-5-((4-methylthiazol-5-yl)methoxy)benzofuran-3-carboxamide]
